Paper PMC11898488, “A2A Adenosine Receptor Antagonists and Their Efficacy in Rat Models of Parkinson’s Disease” (Cells, 2025)
Read-outs that look alike come from different tables or passages of the source.

Columns and labels:
human A2AAR [1] = biological target: T1, human A2AAR (Homo sapiens, UniProt P29274); conditions: cited from earlier work
T1 construct: expressed in transfected cells; host or cells: CHO cells, crude membrane fractions

human A2BAR [2] = biological target: T2, human A2BAR (Homo sapiens, UniProt P29275); conditions: inhibition of NECA-stimulated AC activity, CHO cells expressing human A2BAR; geometric mean with 95% confidence limits; read-out: IC50 A2B; cited from earlier work
T2 construct: expressed in transfected cells; host or cells: CHO cells, crude membrane fractions
T2 sequence (P29275 1-332): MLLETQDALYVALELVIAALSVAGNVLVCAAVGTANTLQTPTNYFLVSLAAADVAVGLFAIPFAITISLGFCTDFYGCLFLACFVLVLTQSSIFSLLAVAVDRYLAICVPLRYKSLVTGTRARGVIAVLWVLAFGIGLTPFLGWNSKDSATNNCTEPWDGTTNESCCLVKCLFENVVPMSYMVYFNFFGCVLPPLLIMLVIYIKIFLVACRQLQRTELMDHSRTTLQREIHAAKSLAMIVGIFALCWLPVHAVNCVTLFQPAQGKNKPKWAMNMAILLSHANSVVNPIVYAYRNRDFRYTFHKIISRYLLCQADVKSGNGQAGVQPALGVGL

human A3AR [3] = biological target: T3, human A3AR (Homo sapiens, UniProt P0DMS8); conditions: [3H]-NECA displacement, human A3AR in CHO cells; geometric mean with 95% confidence limits; read-out: Ki A3; cited from earlier work
T3 construct: expressed in transfected cells; host or cells: CHO cells, crude membrane fractions
T3 sequence (P0DMS8 1-318): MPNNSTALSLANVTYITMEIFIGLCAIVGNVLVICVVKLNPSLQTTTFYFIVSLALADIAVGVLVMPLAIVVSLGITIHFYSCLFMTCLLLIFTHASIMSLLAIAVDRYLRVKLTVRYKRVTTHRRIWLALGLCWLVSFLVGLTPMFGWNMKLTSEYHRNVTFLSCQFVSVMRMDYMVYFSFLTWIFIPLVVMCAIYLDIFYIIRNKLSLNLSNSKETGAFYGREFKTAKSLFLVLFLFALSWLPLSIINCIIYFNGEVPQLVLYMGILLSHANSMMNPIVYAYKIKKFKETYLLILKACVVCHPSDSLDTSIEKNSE

human A1AR [4] = biological target: T4, human A1AR (Homo sapiens, UniProt P30542); conditions: [3H]-CCPA displacement, human A1AR in CHO cells; geometric mean with 95% confidence limits; read-out: Ki A1; cited from earlier work
T4 construct: expressed in transfected cells; host or cells: CHO cells, crude membrane fractions
T4 sequence (P30542 1-326): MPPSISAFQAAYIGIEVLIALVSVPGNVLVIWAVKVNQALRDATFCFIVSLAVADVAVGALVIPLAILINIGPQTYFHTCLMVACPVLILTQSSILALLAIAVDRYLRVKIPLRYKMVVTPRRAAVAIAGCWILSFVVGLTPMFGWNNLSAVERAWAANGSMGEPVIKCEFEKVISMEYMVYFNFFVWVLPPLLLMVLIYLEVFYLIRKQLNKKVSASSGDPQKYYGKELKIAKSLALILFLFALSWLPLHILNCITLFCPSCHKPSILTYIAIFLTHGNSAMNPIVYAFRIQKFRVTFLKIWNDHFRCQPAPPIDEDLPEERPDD

human A2AAR [5] = biological target: T1, human A2AAR; assay: Radioligand binding, displacement of [3H]NECA at human A2AAR in CHO cells; conditions: for Selectivity A1/A2A / Selectivity A3/A2A: ratio of Ki values at human ARs; for Ki: [3H]-NECA displacement, geometric mean with 95% confidence limits, read-out: Ki A2A
Method: (§1) The radioligand binding experiments were carried out exactly as described previously. For A1AR binding, 1 nM [^3H]CCPA was used as a radioligand, whereas 30 and 10 nM [^3H]NECA were used for A2A and A3 ARs, respectively. Nonspecific binding was determined in the presence of 1 mM theophylline (A1AR) or […] R-PIA (A2A and A3 ARs). Ki values were calculated from competition curves by nonlinear curve fitting with the program SCTFIT [31].
(§2) CHO cells stably transfected with human ARs were grown adherently and maintained in Dulbecco’s Modified Eagles Medium with nutrient mixture F12 (DMEM/F12) without nucleosides, containing 10% fetal calf serum, penicillin (100 U/mL), streptomycin (100 μg/mL), L-glutamine (2 mM), and Geneticin (G-418, 0.2 mg/mL) at 37 °C in 5% CO2/95% air, as described earlier. For radioligand binding studies and measurement of adenylyl cyclase activity, crude membrane fractions were prepared from fresh or frozen cells with two different protocols described earlier. The determination of adenylyl cyclase activity followed the procedure described earlier. IC50 values for the inhibition of adenylyl cyclase stimulated (in the case of A2BAR) with 5 μM NECA were calculated with the Hill equation and converted to Ki values with the Cheng and Prusoff equation [32].
(§3) [^3H]CCPA (2-chloro-N^6-cyclopentylAdo) and [^3H]NECA (5′-N-ethylcarboxamidoAdo) were used as specific radioligands at A1ARand A2A / A3 ARs, respectively. Furthermore, the ability of the same compounds to inhibit NECA-stimulated adenylyl cyclase activity was evaluated at the A2BAR subtype. The results of the binding studies (A1, A2A, and A3 ARs) and functional data (A2BAR) are reported in Table 1 as Ki or IC50 values in nM, together with the data on the reference compounds 1–3.

human A2BAR [6] = biological target: T2, human A2BAR; assay: Inhibition of NECA-stimulated adenylyl cyclase activity at human A2BAR; format: biochemical; conditions: inhibition of NECA-stimulated AC activity, CHO cells expressing human A2BAR, read-out: IC50 A2B
Method: as §2, §3

human A1AR [7] = biological target: T4, human A1AR; assay: Radioligand binding, displacement of [3H]CCPA at human A1AR in CHO cells; conditions: for Ki: [3H]-CCPA displacement, geometric mean with 95% confidence limits, read-out: Ki A1
Method: as §1, §2, §3

human A3AR [8] = biological target: T3, human A3AR; assay: Radioligand binding, displacement of [3H]NECA at human A3AR in CHO cells; conditions: [3H]-NECA displacement, read-out: Ki A3
Method: as §1, §2, §3

[9] = [3H]-NECA displacement, human A2AAR in CHO cells, geometric mean with 95% confidence limits, read-out: Ki A2A
[10] = geometric mean with 95% confidence limits

T1 sequence (P29274 whole entry): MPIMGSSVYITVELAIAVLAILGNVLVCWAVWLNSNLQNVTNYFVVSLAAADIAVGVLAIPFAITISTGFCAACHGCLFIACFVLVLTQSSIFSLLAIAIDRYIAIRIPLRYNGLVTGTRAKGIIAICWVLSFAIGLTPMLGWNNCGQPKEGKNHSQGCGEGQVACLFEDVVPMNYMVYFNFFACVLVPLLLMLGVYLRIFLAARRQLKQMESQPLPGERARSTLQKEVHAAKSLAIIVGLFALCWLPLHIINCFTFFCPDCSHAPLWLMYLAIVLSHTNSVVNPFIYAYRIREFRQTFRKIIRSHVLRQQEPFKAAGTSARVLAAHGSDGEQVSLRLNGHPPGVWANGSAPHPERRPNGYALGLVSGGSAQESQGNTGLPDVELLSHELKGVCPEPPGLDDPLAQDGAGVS

Selectivity A1/A2A (human A2AAR [5]) | Selectivity A3/A2A (human A2AAR [5]) | IC50 (human A2BAR [6]; [10]) | Ki (human A1AR [7]) | Ki (human A3AR [8]; [10]) | Ki (human A2AAR [5]; human A2AAR in CHO cells) | IC50 (human A2BAR [6]; bound given in µM) | Affinity at A1 AR, in words (human A1AR [7]) | Ki (human A3AR [8]; bound given in µM) | Affinity at A2A AR, in words (human A2AAR [5]; human A2AAR in CHO cells) | SMILES | Ki (human A2AAR [1]; read-out: Ki at the human A2AAR) | IC50 (human A2BAR [2]) | Ki (human A3AR [3]) | Ki (human A1AR [4]) | Ki (human A2AAR [1]; [9])
1.4 | 59 |  |  |  |  |  |  |  |  | CCn1cnc2c(N)nc(OCCc3ccccc3)nc21 [Compound 3, 9-ethyl-2-phenethoxyadenine] |  | 45800 nM | 7150 nM | 170 nM | 120 nM
2.7 | 3.5 | 4.99 µM | 21 nM | 0.027 µM | 7.7 nM |  |  |  |  | CCn1c(-c2cccs2)nc2c(N)nc(OCCc3ccccc3)nc21 [Compound 6] |  |  |  |  | 
6.3 | 18 | 38.9 µM | 509 nM | 1.45 µM | 81 nM |  |  |  |  | CCn1c(C2CCCO2)nc2c(N)nc(OCCc3ccccc3)nc21 (centres unmarked) [Compound 7] |  |  |  |  | 
3.0 | 19 | 63.7 µM | 1990 nM | 12.3 µM | 655 nM |  |  |  |  | CCn1cnc2c(N)nc(OCCc3ccc(OC)cc3)nc21 [Compound 9, 9-ethyl-2-(4-methoxyphenyl)ethoxyadenine] |  |  |  |  | 
3.2 |  |  | 22900 nM |  | 7080 nM | > 100 µM | µM affinity | > 100 µM | µM affinity | CCn1cnc2c(N)nc(Oc3ccc(CCO)cc3)nc21 [Compound 13, 2-(4-((6-amino-9-ethyl-9H-purin-2-yl)oxy)phenyl)ethan-1-ol] |  |  |  |  | 

Further lines, the compound ahead of its results:

SMILES | Selectivity A1/A2A (human A2AAR [5]) | Selectivity A3/A2A (human A2AAR [5]) | IC50 (human A2BAR [6]; [10]) | Ki (human A1AR [7]) | Ki (human A3AR [8]; [10]) | Ki (human A2AAR [5]; human A2AAR in CHO cells) | IC50 (human A2BAR [6]; bound given in µM) | Affinity at A1 AR, in words (human A1AR [7]) | Ki (human A3AR [8]; bound given in µM) | Affinity at A2A AR, in words (human A2AAR [5]; human A2AAR in CHO cells) | Ki (human A2AAR [1]; read-out: Ki at the human A2AAR) | IC50 (human A2BAR [2]) | Ki (human A3AR [3]) | Ki (human A1AR [4]) | Ki (human A2AAR [1]; [9])
CCOc1nc2c(N)ncnc2n1CC [ANR 94, 9-ethyl-8-ethoxyadenine, reference compound] |  |  |  |  |  |  |  |  |  |  | 46 nM |  |  |  | 
CCn1c(-c2ccco2)nc2c(N)nc(OCCc3ccccc3)nc21 [Compound 2, 9-ethyl-8-furyl-2-phenetoxyadenine] | 2.6 | 7.3 |  |  |  |  |  |  |  |  |  | 521 nM | 16 nM | 5.8 nM | 2.2 nM
CCn1c(Br)nc2c(N)nc(OCCc3ccc(OC)cc3)nc21 [Compound 10, 8-bromo-9-ethyl-2-(4-methoxyphenethoxy)-9H-purin-6-amine] | 7.1 | 146 | 9.19 µM | 197 nM | 4.06 µM | 28 nM |  |  |  |  |  |  |  |  | 
CCn1c(-c2ccco2)nc2c(N)nc(OCCc3ccc(OC)cc3)nc21 [Compound 11] | 5.5 | 10 |  | 39 nM | 0.073 µM | 7.1 nM | > 100 µM |  |  |  |  |  |  |  | 
